Converted amounts (≈) assume the structure as drawn.
Assays:
[1] = tested on: antisera generated to Immunogen I (hapten A-BTG); assay: competitive microtiter plate assay (ELISA) for salvinorin A and salvinorin B; format: binding, sheep
[2] = in vivo; cited from earlier work
[3] = Conjugate I, calibrator 0.16 ng/ml
[4] = Conjugate I, calibrator 0.31 ng/ml
[5] = Conjugate I, calibrator 0.63 ng/ml
[6] = Conjugate I, calibrator 1.25 ng/ml
[7] = Conjugate I, calibrator 2.50 ng/ml
[8] = Conjugate I, calibrator 5.00 ng/ml
[9] = Conjugate I, calibrator 10.00 ng/ml
[10] = Conjugate II, calibrator 0.16 ng/ml
[11] = Conjugate II, calibrator 0.31 ng/ml
[12] = Conjugate II, calibrator 0.63 ng/ml
[13] = Conjugate II, calibrator 1.25 ng/ml
[14] = Conjugate II, calibrator 2.50 ng/ml
[15] = Conjugate II, calibrator 5.00 ng/ml
[16] = Conjugate II, calibrator 10.00 ng/ml

COC(=O)C1CC(O)C(=O)C2C1(C)CCC1C(=O)OC(c3ccoc3)CC12C (stereo not shown) [Salvinorin B]
% CR (percentage cross-reactivity based on 100% specificity to salvinorin A) ([1]; Conjugate I): 9.52%
IC50 (standard concentration which produces 50% B/Bo) ([1]; Conjugate I): 2.909 ng/mL (≈ 7.45 nM)
% B/B0 [1, 3]: 84%
% B/B0 [1, 4]: 74%
% B/B0 [1, 5]: 70%
% B/B0 [1, 6]: 63%
% B/B0 [1, 7]: 50%
% B/B0 [1, 8]: 43%
% B/B0 [1, 9]: 33%
% CR (percentage cross-reactivity based on 100% specificity to salvinorin A) ([1]; Conjugate II): 12.00%
IC50 (standard concentration which produces 50% B/Bo) ([1]; Conjugate II): 2.758 ng/mL (≈ 7.06 nM)
% B/B0 [1, 10]: 85%
% B/B0 [1, 11]: 78%
% B/B0 [1, 12]: 71%
% B/B0 [1, 13]: 61%
% B/B0 [1, 14]: 51%
% B/B0 [1, 15]: 43%
% B/B0 [1, 16]: 33%

COC(=O)[C@@H]1C[C@H](OC(C)=O)C(=O)[C@H]2[C@@]1(C)CC[C@H]1C(=O)O[C@H](c3ccoc3)C[C@]21C [Salvinorin A]
% CR (percentage cross-reactivity based on 100% specificity to salvinorin A) ([1]; Conjugate I): 100%
IC50 (standard concentration which produces 50% B/Bo) ([1]; Conjugate I): 0.277 ng/mL (≈ 0.641 nM)
% B/B0 [1, 3]: 62%
% B/B0 [1, 4]: 48%
% B/B0 [1, 5]: 36%
% B/B0 [1, 6]: 26%
% B/B0 [1, 7]: 18%
% B/B0 [1, 8]: 13%
% B/B0 [1, 9]: 9%
% CR (percentage cross-reactivity based on 100% specificity to salvinorin A) ([1]; Conjugate II): 100%
IC50 (standard concentration which produces 50% B/Bo) ([1]; Conjugate II): 0.331 ng/mL (≈ 0.765 nM)
% B/B0 [1, 10]: 64%
% B/B0 [1, 11]: 51%
% B/B0 [1, 12]: 39%
% B/B0 [1, 13]: 30%
% B/B0 [1, 14]: 20%
% B/B0 [1, 15]: 14%
% B/B0 [1, 16]: 9%
action of duration [2]: 10 to 15 min

— patent publication US9222949B2, “Salvinorin immunoassay” (priority 2009, dated 2015)
